Tests used:
H1299 cells = experiment: MTT assay, viability of H1299 cells; assay type: cell-based; conditions: Homo sapiens, NCI-H1299, 72 h, three days, read-out: IC50 against the viability
Description: Cells were seeded into 96-well plates at a density of 1-2 × 10^3 cells/well and incubated for 24 h. Cells were treated with vehicle or various concentrations of test compounds for two (PC9 and PC9/ER cells) or three (other cells) days. Cells were further incubated with MTT solution (final concentration of 500 μg/mL) for 4 h at 37 °C. The formazan products were dissolved in dimethyl sulfoxide (DMSO), and the absorbance was measured at 570 nm. The data are presented as a percentage of the control group.

IGF-1R [1] = experiment: Western blot, phosphorylation of IGF-1R in H1944 and A549 cells; assay type: cell-based, human; conditions: 2.5 μM
Description: Before harvesting, the cells were stimulated with 10% FBS for 20 min. Total cell lysates were prepared with modified radioimmunoprecipitation assay lysis buffer (50 mM Tris-HCl [pH 7.4], 150 mM NaCl, 1 mM EDTA, 0.25% sodium deoxycholate, 1% Triton X-100, 100 mM NaF, 5 mM Na3VO4, 1 mM PMSF, 1 μg/mL aprotinin, 1 μg/mL leupeptin, and 1 μg/mL pepstatin). Equal amounts of protein (20 μg) were subjected to 8% SDS-PAGE and electrically transferred onto polyvinylidene difluoride membranes (Bio-Rad Laboratories, Hercules, CA, USA). Membranes were blocked with blocking buffer (3% BSA in Tris-buffered saline containing 0.1% Tween-20 [TBST]) for 1 h at room temperature. The membranes were incubated with primary antibodies diluted in 3% BSA in TBST (1:1,000) overnight at 4 °C, washed multiple times with TBST, and incubated with secondary antibodies diluted in 3% nonfat dry milk in TBST (1:5,000) for 1 h at room temperature. The membranes were washed multiple times with TBST and visualized using an enhanced chemiluminescence detection kit (Thermo Fisher Scientific). Densitometric analysis was performed using ImageJ software.

Src [2] = experiment: Western blot, phosphorylation of Src in H1944 and A549 cells; assay type: cell-based, human; conditions: 2.5 μM
AXL = experiment: KINOMEscan competition binding assay; parameters: species or system human
Description: (§1) Kd values were obtained by KINOMEscan from DiscoverX (San Diego, CA, USA). To briefly summarize, Kd was measured by a competition binding assay that quantitatively measures the ability of a compound to compete with an immobilized ligand. […] Dose response curves of 11 points are obtained for Kd values, which are measured in duplicate. See more details in the cited references [39]-[42] and see also at www.discoverx.com.

IGF-1R [3] = experiment: KINOMEscan competition binding assay; parameters: species or system human
Description: as §1

Src [4] = experiment: KINOMEscan competition binding assay; parameters: species or system human
Description: as §1

BMPR2 = biological target: T1, BMPR2 (Homo sapiens, UniProt Q13873); experiment: KINOMEscan competition binding assay; conditions: LL6 at 10 μM; read-out: Percent Control
T1 construct: purchased DiscoverX KINOMEscan
Description: as §1

CDK9 = biological target: T2, CDK9 (Homo sapiens, UniProt P50750); experiment: KINOMEscan competition binding assay; conditions: LL6 at 10 μM; read-out: Percent Control
T2 construct: purchased DiscoverX KINOMEscan
Description: as §1

CHEK1 = biological target: T3, CHEK1 (Homo sapiens, UniProt O14757); experiment: KINOMEscan competition binding assay; conditions: LL6 at 10 μM; read-out: Percent Control
T3 construct: purchased DiscoverX KINOMEscan
Description: as §1

CSF1R = biological target: T4, CSF1R (Homo sapiens, UniProt P07333); experiment: KINOMEscan competition binding assay
T4 construct: purchased DiscoverX (KINOMEscan service)
Description: as §1

ERBB4 = biological target: T5, ERBB4 (Homo sapiens, UniProt Q15303); experiment: KINOMEscan competition binding assay; conditions: LL6 at 10 μM; read-out: Percent Control
T5 construct: purchased DiscoverX KINOMEscan
Description: as §1

FLT3 = biological target: T6, FLT3 (Homo sapiens, UniProt P36888); experiment: KINOMEscan competition binding assay; conditions: LL6 at 10 μM; read-out: Percent Control
T6 construct: purchased DiscoverX KINOMEscan
Description: as §1

IKK-alpha = biological target: T7, IKK-alpha (Homo sapiens, UniProt O15111); experiment: KINOMEscan competition binding assay; conditions: LL6 at 10 μM; read-out: Percent Control
T7 construct: purchased DiscoverX KINOMEscan
Description: as §1

[5] = biological target: T8, JAK2(JH1domain-catalytic) (Homo sapiens, UniProt O60674); experiment: KINOMEscan competition binding assay; conditions: LL6 at 10 μM; read-out: Percent Control
T8 construct: JAK2(JH1domain-catalytic); purchased DiscoverX KINOMEscan
Description: as §1

MEK1 = biological target: T9, MEK1 (Homo sapiens, UniProt Q02750); experiment: KINOMEscan competition binding assay; conditions: LL6 at 10 μM; read-out: Percent Control
T9 construct: purchased DiscoverX KINOMEscan
Description: as §1

PDGFRA = biological target: T10, PDGFRA (Homo sapiens, UniProt P16234); experiment: KINOMEscan competition binding assay; conditions: LL6 at 10 μM; read-out: Percent Control
T10 construct: purchased DiscoverX KINOMEscan
Description: as §1

PDPK1 = biological target: T11, PDPK1 (Homo sapiens, UniProt O15530); experiment: KINOMEscan competition binding assay; conditions: LL6 at 10 μM; read-out: Percent Control
T11 construct: purchased DiscoverX KINOMEscan
Description: as §1

PIK3CG = biological target: T12, PIK3CG (Homo sapiens, UniProt P48736); experiment: KINOMEscan competition binding assay; conditions: LL6 at 10 μM; read-out: Percent Control
T12 construct: purchased DiscoverX KINOMEscan
Description: as §1

PIM1 = biological target: T13, PIM1 (Homo sapiens, UniProt P11309); experiment: KINOMEscan competition binding assay; conditions: LL6 at 10 μM; read-out: Percent Control
T13 construct: purchased DiscoverX KINOMEscan
Description: as §1

PIM2 = biological target: T14, PIM2 (Homo sapiens, UniProt Q9P1W9); experiment: KINOMEscan competition binding assay; conditions: LL6 at 10 μM; read-out: Percent Control
T14 construct: purchased DiscoverX KINOMEscan
Description: as §1

PIM3 = biological target: T15, PIM3 (Homo sapiens, UniProt Q86V86); experiment: KINOMEscan competition binding assay; conditions: LL6 at 10 μM; read-out: Percent Control
T15 construct: purchased DiscoverX KINOMEscan
Description: as §1

RAF1 = biological target: T16, RAF1 (Homo sapiens, UniProt P04049); experiment: KINOMEscan competition binding assay; conditions: LL6 at 10 μM; read-out: Percent Control
T16 construct: purchased DiscoverX KINOMEscan
Description: as §1

[6] = biological target: T17, RSK2(Kin.Dom.1-N-terminal) (Homo sapiens, UniProt P51812); experiment: KINOMEscan competition binding assay; conditions: LL6 at 10 μM; read-out: Percent Control
T17 construct: RSK2(Kin.Dom.1-N-terminal); purchased DiscoverX KINOMEscan
Description: as §1

SNARK = biological target: T18, SNARK (Homo sapiens, UniProt Q9H093); experiment: KINOMEscan competition binding assay; conditions: LL6 at 10 μM; read-out: Percent Control
T18 construct: purchased DiscoverX KINOMEscan
Description: as §1

YANK3 = biological target: T19, YANK3 (Homo sapiens, UniProt Q86UX6); experiment: KINOMEscan competition binding assay; conditions: LL6 at 10 μM; read-out: Percent Control
T19 construct: purchased DiscoverX KINOMEscan
Description: as §1

ZAP70 = biological target: T20, ZAP70 (Homo sapiens, UniProt P43403); experiment: KINOMEscan competition binding assay; conditions: LL6 at 10 μM; read-out: Percent Control
T20 construct: purchased DiscoverX KINOMEscan
Description: as §1

p38-beta = biological target: T21, p38-beta (Homo sapiens, UniProt Q15759); experiment: KINOMEscan competition binding assay; conditions: LL6 at 10 μM; read-out: Percent Control
T21 construct: purchased DiscoverX KINOMEscan
Description: as §1

IC50 (H1299 cells): 2.93 µM | Kd (AXL; AXL, 11-point dose response, duplicate): 1.6 µM | inhibition (AXL; AXL, LL6 at 10 µM): > 65% | Percent Control (AXL; LL6 at 10 μM): 22% | Kd (IGF-1R [3]; IGF-1R, 11-point dose response, duplicate): 5 µM | inhibition (IGF-1R [3]; IGF-1R, LL6 at 10 µM): > 65% | Percent Control (IGF-1R [3]; LL6 at 10 μM): 16% | Percent Control (Src [4]; LL6 at 10 μM): 26% | Kd (Src [4]; Src, 11-point dose response, duplicate): 3.4 µM | inhibition (Src [4]; Src, LL6 at 10 µM): > 65% | remaining binding at 10 µM (BMPR2): 40% | remaining binding at 10 µM (CDK9): 100% | remaining binding at 10 µM (CHEK1): 100% | inhibition at 10 µM (CSF1R; CSF1R, LL6 at 10 µM): > 65% | remaining binding at 10 µM (CSF1R; LL6 at 10 μM, read-out: Percent Control): 29% | remaining binding at 10 µM (ERBB4): 40% | remaining binding at 10 µM (FLT3): 43% | remaining binding at 10 µM (IKK-alpha): 100% | remaining binding at 10 µM [5]: 100% | remaining binding at 10 µM (MEK1): 65% | remaining binding at 10 µM (PDGFRA): 64% | remaining binding at 10 µM (PDPK1): 87% | remaining binding at 10 µM (PIK3CG): 63% | remaining binding at 10 µM (PIM1): 98% | remaining binding at 10 µM (PIM2): 100% | remaining binding at 10 µM (PIM3): 100% | remaining binding at 10 µM (RAF1): 82% | remaining binding at 10 µM [6]: 25% | remaining binding at 10 µM (SNARK): 100% | remaining binding at 10 µM (YANK3): 100% | remaining binding at 10 µM (ZAP70): 100% | remaining binding at 10 µM (p38-beta): 65%
SMILES: Nc1ncnc2c1c(-c1ccc(Cl)cc1)nn2CCn1cc(COc2ccc(Nc3nccc(Nc4cnc5ccccc5c4)n3)cc2)nn1 [LL6]
activation (phosphorylation) of IGF-1R (IGF-1R [1]): efficiently suppressed | activation (phosphorylation) of Src (Src [2]): efficiently suppressed | Kd (CSF1R; CSF1R, 11-point dose response, duplicate): did not show dose-dependent inhibition curves

— publication PMC7778606, “Development of the phenylpyrazolo[3,4-d]pyrimidine-based, insulin-like growth factor receptor/Src/AXL-targeting small molecule kinase inhibitor” (Theranostics, 2021)
